This passage reports GI50 and IC50 results from patent US20250084095A1, “Aminopyrimidine Derivatives as Cyclin-Dependent Kinase Inhibitors” (Accutar Biotechnology Inc., priority 2023, published 2025).

pIC50: −log10 of the molar value. Some results are limits rather than exact numbers.

Test [1] relates to 22RV1 cells. As to the kind of experiment: Cell growth inhibition of 22RV1 cells (CellTiter-Glo). Conditions: Homo sapiens, 22Rv1, 120 h, 5 days, CellTiter-Glo, read-out: 22RV1 Cell Growh GI50. The class given is cell-based. The gist of the method: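 22RV1 cells were plated in RPMI1640 with FBS (20% in one version, 10% in the other) and dosed next day at various concentrations from DMSO stocks. After 5 days at 37 °C, viability was measured by CellTiter-Glo luminescence.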
In general terms: ATP-based viability assays read luminescence as a measure of living cells.

The subject of test [2] is Phospho-Rb (Ser807/811) in MCF7 cells. As to the kind of experiment: Phospho-Rb expression inhibition in MCF7 cells quantified by in cell Western. The class given is cell-based, human. Conditions: Homo sapiens, MCF7, 24 h, 24 hours, in cell Western, read-out: MCF7 pRb IC50. In outline: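 MCF7 cells were seeded at 20,000/well, grown overnight, then treated 24 h at 37 °C with compound dilutions (0.1% DMSO from 1000× stocks). Fixed cells were co-stained for phospho-Rb Ser807/811 and total Rb. Near-infrared dual-channel in-cell Western imaging was the read-out.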

What is called GI50 is the concentration at which growth is held to half of that of the control. The pIC50 is −log10 of the IC50, conventionally taken in molar units.

For the compound `Cc1c(CN2C[C@@H](C)OC2=O)n(C(C)C)c2cc(-c3nc(N[C@@H]4C[C@H]5CO[C@H](O5)[C@H]4O)ncc3F)ccc2c1=O` [Compound 271, (R)-3-((7-(5-fluoro-2-(((1S,3R,4S,5R)-4-hydroxy-6,8-dioxabicyclo[3.2.1]octan-3-yl)amino)pyrimidin-4-yl)-1-isopropyl-3-methyl-4-oxo-1,4-dihydroquinolin-2-yl)methyl)-5-methyloxazolidin-2-one], the GI50 in test [1] is greater than 3000 nM. Moreover, in test [2], the pIC50 is 6.00 to 6.82.
In the same order, the values of `CC(C)n1c(N2CCOC2=O)nc2c(F)cc(-c3nc(N[C@@H]4C[C@H]5CO[C@H](O5)[C@H]4O)ncc3Cl)cc21` [Compound 272, 3-(6-(5-chloro-2-(((1S,3R,4S,5R)-4-hydroxy-6,8-dioxabicyclo[3.2.1]octan-3-yl)amino)pyrimidin-4-yl)-4-fluoro-1-isopropyl-1H-benzo[d]imidazol-2-yl)oxazolidin-2-one] are 450 to 3000 nM and 6.82 to 7.40.
For `Cc1c(-c2nc(N[C@@H]3C[C@H]4CO[C@H](O4)[C@H]3O)ncc2F)sc2c(C)c(C(C)(C)O)cnc12` [Compound 278, (1S,3R,4S,5R)-3-((5-fluoro-4-(6-(2-hydroxypropan-2-yl)-3,7-dimethylthieno[3,2-b]pyridin-2-yl)pyrimidin-2-yl)amino)-6,8-dioxabicyclo[3.2.1]octan-4-ol], in that order: no more than 120 nM and no less than 7.40.
In the same order, the values of `Cc1c(C(C)(C)O)nnc2c(F)cc(-c3nc(N[C@@H]4C[C@H]5CO[C@H](O5)[C@H]4O)ncc3Cl)cc12` [Compound 279, (1S,3R,4S,5R)-3-((5-chloro-4-(8-fluoro-3-(2-hydroxypropan-2-yl)-4-methylcinnolin-6-yl)pyrimidin-2-yl)amino)-6,8-dioxabicyclo[3.2.1]octan-4-ol] are no more than 120 nM and 6.00 to 6.82.
In the case of `Cc1c(C(C)(C)O)nnc2c(F)cc(-c3nc(N[C@@H]4C[C@H]5CO[C@H](O5)[C@H]4O)ncc3F)cc12` [Compound 280, (1S,3R,4S,5R)-3-((5-fluoro-4-(8-fluoro-3-(2-hydroxypropan-2-yl)-4-methylcinnolin-6-yl)pyrimidin-2-yl)amino)-6,8-dioxabicyclo[3.2.1]octan-4-ol], the GI50 in test [1] is no more than 120 nM. Also, the pIC50 in test [2] was 6.00 to 6.82.
For `Cc1c(C(C)(C)O)cnc2c(Cl)cc(-c3nc(N[C@@H]4C[C@H]5CO[C@H](O5)[C@H]4O)ncc3F)cc12` [Compound 283, (1S,3R,4S,5R)-3-((4-(8-chloro-3-(2-hydroxypropan-2-yl)-4-methylquinolin-6-yl)-5-fluoropyrimidin-2-yl)amino)-6,8-dioxabicyclo[3.2.1]octan-4-ol], in that order: no more than 120 nM and no less than 7.40.
For `Cc1c(C(C)(C)O)cnc2c(Cl)cc(-c3nc(N[C@@H]4C[C@H]5CO[C@H](O5)[C@H]4O)ncc3Cl)cc12` [Compound 284, (1S,3R,4S,5R)-3-((5-chloro-4-(8-chloro-3-(2-hydroxypropan-2-yl)-4-methylquinolin-6-yl)pyrimidin-2-yl)amino)-6,8-dioxabicyclo[3.2.1]octan-4-ol], in that order: no more than 120 nM and no less than 7.40.
For `CC(C)(O)c1cnc2c(Cl)cc(-c3nc(N[C@@H]4C[C@H]5CO[C@H](O5)[C@H]4O)ncc3F)cc2c1Cl` [Compound 285, (1S,3R,4S,5R)-3-((4-(4,8-dichloro-3-(2-hydroxypropan-2-yl)quinolin-6-yl)-5-fluoropyrimidin-2-yl)amino)-6,8-dioxabicyclo[3.2.1]octan-4-ol], in that order: no more than 120 nM and no less than 7.40.
Consider `CC(C)(O)c1cnc2c(Cl)cc(-c3nc(N[C@@H]4C[C@H]5CO[C@H](O5)[C@H]4O)ncc3Cl)cc2c1Cl` [Compound 286, (1S,3R,4S,5R)-3-((5-chloro-4-(4,8-dichloro-3-(2-hydroxypropan-2-yl)quinolin-6-yl)pyrimidin-2-yl)amino)-6,8-dioxabicyclo[3.2.1]octan-4-ol], for which the GI50 in test [1] was no more than 120 nM. In addition, the pIC50 in test [2] is no less than 7.40.
For `Cc1c(CN2CCC[C@@H](O)C2)n(C(C)C)c2cc(-c3nc(N[C@@H]4C[C@H]5CO[C@H](O5)[C@H]4O)ncc3F)ccc2c1=O` [Compound 291, 7-(5-fluoro-2-(((1S,3R,4S,5R)-4-hydroxy-6,8-dioxabicyclo[3.2.1]octan-3-yl)amino)pyrimidin-4-yl)-2-(((R)-3-hydroxypiperidin-1-yl)methyl)-1-isopropyl-3-methylquinolin-4(1H)-one], in that order: 120 to 450 nM and 6.00 to 6.82.
For `Cc1c(CN2CC[C@@H](F)C2)n(C(C)C)c2cc(-c3nc(N[C@@H]4C[C@H]5CO[C@H](O5)[C@H]4O)ncc3F)ccc2c1=O` [Compound 292, 7-(5-fluoro-2-(((1S,3R,4S,5R)-4-hydroxy-6,8-dioxabicyclo[3.2.1]octan-3-yl)amino)pyrimidin-4-yl)-2-(((R)-3-fluoropyrrolidin-1-yl)methyl)-1-isopropyl-3-methylquinolin-4(1H)-one], in that order: 120 to 450 nM and 6.82 to 7.40.
Turning to `CCCc1cn(C)c(=O)c2ccc(-c3nc(N[C@@H]4C[C@H]5CO[C@H](O5)[C@H]4O)ncc3Cl)cc12` [Compound 294, 6-(5-chloro-2-(((1S,3R,4S,5R)-4-hydroxy-6,8-dioxabicyclo[3.2.1]octan-3-yl)amino)pyrimidin-4-yl)-2-methyl-4-propylisoquinolin-1(2H)-one], in test [1], the GI50 was in the range of 450 to 3000 nM. Moreover, the pIC50 in test [2] is 6.00 to 6.82.
In the same order, the values of `CC(C)(O)c1cnc2cc(-c3nc(N[C@@H]4C[C@H]5CO[C@H](O5)[C@H]4O)ncc3Cl)cc(F)c2n1` [Compound 295, (1S,3R,4S,5R)-3-((5-chloro-4-(8-fluoro-2-(2-hydroxypropan-2-yl)quinoxalin-6-yl)pyrimidin-2-yl)amino)-6,8-dioxabicyclo[3.2.1]octan-4-ol] are greater than 3000 nM and 6.00 to 6.82.
With `CC(C)n1c(N2C(=O)OC[C@H]2C)nc2c(F)cc(-c3nc(N[C@@H]4C[C@H]5CO[C@H](O5)[C@H]4O)ncc3Cl)cc21` [Compound 296, (R)-3-(6-(5-chloro-2-(((1S,3R,4S,5R)-4-hydroxy-6,8-dioxabicyclo[3.2.1]octan-3-yl)amino)pyrimidin-4-yl)-4-fluoro-1-isopropyl-1H-benzo[d]imidazol-2-yl)-4-methyloxazolidin-2-one], in test [1], the GI50 is 450 to 3000 nM. The pIC50 in test [2] was 6.00 to 6.82.
For `CC(C)[C@H]1COC(=O)N1c1nc2c(F)cc(-c3nc(N[C@@H]4C[C@H]5CO[C@H](O5)[C@H]4O)ncc3Cl)cc2n1C(C)C` [Compound 297, (S)-3-(6-(5-chloro-2-(((1S,3R,4S,5R)-4-hydroxy-6,8-dioxabicyclo[3.2.1]octan-3-yl)amino)pyrimidin-4-yl)-4-fluoro-1-isopropyl-1H-benzo[d]imidazol-2-yl)-4-isopropyloxazolidin-2-one], in that order: 450 to 3000 nM and 6.00 to 6.82.
